# Laboratory results reported in patent US20050070554A1, “Substituted heterocyclic compounds and methods of use” (Amgen Inc., priority 2003, published 2005).
# Like-named read-outs stand apart in the source and are kept apart here.
# Biological target: T1, LCK (Homo sapiens, UniProt P06239)
# T1 construct: LCK KD GST (225-509); GST
# Assay: LCK-Homogeneous Time Resolved Fluorescent (HTRF) Kinase Assay
# Type: biochemical
# Experimental: LCK-Homogeneous Time Resolved Fluorescent (HTRF) Kinase Assay:
# The LCK HTRF assay begins with LCK in the presence of ATP phosphorylating the biotinylated peptide Gastrin. The reaction incubates for 90 min. To quench the assay detection reagents are added which both stop the reaction by diluting out the enzyme and chelating the metals due to the presence of EDTA. Once the detection reagents are added the assay incubates for 30 min to allow for equilibration of the detection reagents.
# Buffer conditions are as follows: 50 mM HEPES pH 7.5, 50 mM NaCl, 20 mM MgCl, 5 mM MnCl, 2 mM DTT, 0.05% BSA.
# The assay is quenched and stopped with 160 μL of detection reagent. Detection reagents are as follows: Buffer made of 50 mM Tris, pH 7.5, 100 mM NaCl, 3 mM EDTA, 0.05% BSA, 0.1% Tween20.
# The assay plate is read in either a Discovery or a RubyStar.
# [1] = read-out: activity in the LCK-HTRF Kinase Assay
# T1 sequence (P06239 225-509): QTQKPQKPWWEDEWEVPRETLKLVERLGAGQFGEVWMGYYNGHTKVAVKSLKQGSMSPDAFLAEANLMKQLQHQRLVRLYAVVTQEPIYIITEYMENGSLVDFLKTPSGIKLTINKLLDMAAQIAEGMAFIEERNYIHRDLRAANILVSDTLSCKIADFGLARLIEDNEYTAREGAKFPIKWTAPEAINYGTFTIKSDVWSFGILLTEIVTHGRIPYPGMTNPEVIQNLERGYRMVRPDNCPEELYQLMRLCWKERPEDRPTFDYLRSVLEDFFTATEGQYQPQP
SMILES,IC50 [1],IC50
"COc1ccc(-n2c(=O)c3cnc(Nc4ccc(N5CCN(C)CC5)cc4)nc3n3c4ccccc4nc23)cc1 [No. 57, 6-(4-(methyloxy)phenyl)-2-((4-(4-methyl-1-piperazinyl)phenyl)amino)pyrimido[5′,4′:5,6]-pyrimido[1,2-a]benzimidazol-5(6H)-one]",< 1 µM,–
"CN1CCN(c2ccc(Nc3ncc4c(=O)n(-c5c(Cl)cc(Cl)cc5Cl)c5nc6ccccc6n5c4n3)cc2)CC1 [No. 77, 2-((4-(4-methyl-1-piperazinyl)phenyl)amino)-6-(2,4,6-trichlorophenyl)pyrimido[5′,4′:5,6]-pyrimido[1,2-a]benzimidazol-5(6H)-one]",–,< 1 µM
"COc1cc(Nc2ncc3c(=O)n(-c4c(C)cccc4C)c4nc5ccccc5n4c3n2)ccc1OCCCN1CCN(C(C)C)CC1 [No. 63, 6-(2,6-dimethylphenyl)-2-((4-((3-(4-(1-methylethyl)-1-piperazinyl)propyl)oxy)-3-(methyloxy)phenyl)-amino)pyrimido[5′,4′:5,6]pyrimido[1,2-a]-benzimidazol-5(6H)-one]",< 1 µM,–
"Cc1cccc(C)c1-n1c(=O)c2cnc(Nc3ccc(N4CCN(Cc5cccc(Cl)c5)CC4)cc3)nc2n2c3ccccc3nc12 [No. 51, 2-((4-(4-((3-chlorophenyl)methyl)-1-piperazinyl)-phenyl)amino)-6-(2,6-dimethylphenyl)-pyrimido[5′,4′:5,6]pyrimido[1,2-a]benzimidazol-5(6H)-one]",< 1 µM,–
"COc1cc(Nc2ncc3c(=O)n(-c4c(C)cccc4C)c4nc5ccccc5n4c3n2)ccc1OCC1CCN(C)CC1 [No. 12, 6-(2,6-dimethylphenyl)-2-((3-(methyloxy)-4-(((1-methyl-4-piperidinyl)methyl)oxy)phenyl)amino)-pyrimido[5′,4′:5,6]pyrimido[1,2-a]benzimidazol-5(6H)-one]",< 1 µM,–
"Cc1cccc(C)c1-n1c(=O)c2cnc(Nc3ccc(N4CCN(CCCN(C)C)CC4)cc3)nc2n2c3ccccc3nc12 [No. 49, 2-((4-(4-(3-(dimethylamino)propyl)-1-piperazinyl)-phenyl)amino)-6-(2,6-dimethylphenyl)-pyrimido[5′,4′:5,6]pyrimido[1,2-a]benzimidazol-5(6H)-one]",< 1 µM,–
"CCN(CC)CCN(C)C(=O)c1cccc(Nc2ncc3c(=O)n(-c4c(C)cccc4C)c4nc5ccccc5n4c3n2)c1 [No. 66, N-(2-(diethylamino)ethyl)-3-((6-(2,6-dimethylphenyl)-5-oxo-5,6-dihydropyrimido[5′,4′:5,6]pyrimido[1,2-a]-benzimidazol-2-yl)amino)-N-methylbenzamide]",< 1 µM,–
"COc1cc(Nc2ncc3c(=O)n(-c4c(C)cccc4C)c4nc5ccccc5n4c3n2)ccc1OCCN1CCN(C(C)C)CC1 [No. 62, 6-(2,6-dimethylphenyl)-2-((4-((2-(4-(1-methylethyl)-1-piperazinyl)ethyl)oxy)-3-(methyloxy)phenyl)-amino)pyrimido[5′,4′:5,6]pyrimido[1,2-a]-benzimidazol-5(6H)-one]",< 1 µM,–
"CN1CCN(c2ccc(Nc3ncc4c(=O)n(-c5ccccc5F)c5nc6ccccc6n5c4n3)cc2)CC1 [No. 79, 6-(2-fluorophenyl)-2-((4-(4-methyl-1-piperazinyl)-phenyl)amino)pyrimido[5′,4′:5,6]pyrimido[1,2-a]-benzimidazol-5(6H)-one]",< 1 µM,–
"Cc1cccc(C)c1-n1c(=O)c2cnc(Nc3ccc(OCCN4CCCCC4)cc3)nc2n2c3ccccc3nc12 [No. 27, 6-(2,6-dimethylphenyl)-2-((4-((2-(1-piperidinyl)-ethyl)oxy)phenyl)amino)pyrimido[5′,4′:5,6]-pyrimido[1,2-a]benzimidazol-5(6H)-one]",< 1 µM,–
"CCN(CC)CCN(C)C(=O)c1ccc(Nc2ncc3c(=O)n(-c4c(C)cccc4C)c4nc5ccccc5n4c3n2)cc1 [No. 64, N-(2-(diethylamino)ethyl)-4-((6-(2,6-dimethylphenyl)-5-oxo-5,6-dihydropyrimido[5′,4′:5,6]pyrimido[1,2-a]-benzimidazol-2-yl)amino)-N-methylbenzamide]",< 1 µM,–
"Cc1cccc(C)c1-n1c(=O)c2cnc(Nc3ccc(OCCC4CCN(C)CC4)cc3)nc2n2c3ccccc3nc12 [No. 24, 6-(2,6-dimethylphenyl)-2-((4-((2-(1-methyl-4-piperidinyl)ethyl)oxy)phenyl)amino)-pyrimido[5′,4′:5,6]pyrimido[1,2-a]benzimidazol-5(6H)-one]",< 1 µM,–
"Cc1cccc(C)c1-n1c(=O)c2cnc(Nc3ccc(N4CCN(C(=O)OC(C)(C)C)CC4)cc3)nc2n2c3ccccc3nc12 [No. 3, 1,1-dimethylethyl 4-(4-((6-(2,6-dimethylphenyl)-5-oxo-5,6-dihydropyrimido[5′,4′:5,6]pyrimido[1,2-a]-benzimidazol-2-yl)amino)phenyl)-1-piperazinecarboxylate]",< 1 µM,–
"COc1cc(Nc2ncc3c(=O)n(-c4c(C)cccc4C)c4nc5ccccc5n4c3n2)ccc1OCCNC(C)C [No. 43, 6-(2,6-dimethylphenyl)-2-((4-((2-((1-methylethyl)-amino)ethyl)oxy)-3-(methyloxy)phenyl)amino)-pyrimido[5′,4′:5,6]pyrimido[1,2-a]benzimidazol-5(6H)-one]",< 1 µM,–
"Cc1cccc(C)c1-n1c(=O)c2cnc(Nc3ccc(N4CCNCC4)cc3)nc2n2c3ccccc3nc12 [No. 2, 6-(2,6-dimethylphenyl)-2-((4-(1-piperazinyl)phenyl)-amino)pyrimido[5′,4′:5,6]pyrimido[1,2-a]-benzimidazol-5(6H)-one]",< 1 µM,–

# Now from value to compound:
IC50 [1],IC50,SMILES
< 1 µM,–,"COc1cc(Nc2ncc3c(=O)n(-c4c(C)cccc4C)c4nc5ccccc5n4c3n2)cc(OC)c1OCCN1CCCCC1 [No. 25, 2-((3,5-bis(methyloxy)-4-((2-(1-piperidinyl)ethyl)-oxy)phenyl)amino)-6-(2,6-dimethylphenyl)-pyrimido[5′,4′:5,6]pyrimido[1,2-a]benzimidazol-5(6H)-one]"
< 1 µM,–,"COCCN1CCN(c2ccc(Nc3ncc4c(=O)n(-c5c(C)cccc5C)c5nc6ccccc6n5c4n3)cc2)CC1 [No. 54, 6-(2,6-dimethylphenyl)-2-((4-(4-(2-(methyloxy)ethyl)-1-piperazinyl)phenyl)amino)pyrimido[5′,4′:5,6]-pyrimido[1,2-a]benzimidazol-5(6H)-one]"
< 1 µM,–,"Cc1cc(OCCCN2CCN(C)CC2)ccc1Nc1ncc2c(=O)n(-c3c(C)cccc3C)c3nc4ccccc4n3c2n1 [No. 16, 6-(2,6-dimethylphenyl)-2-((2-methyl-4-((3-(4-methyl-1-piperazinyl)propyl)oxy)phenyl)amino)-pyrimido[5′,4′:5,6]pyrimido[1,2-a]benzimidazol-5(6H)-one]"
< 1 µM,–,"Cc1cccc(C)c1-n1c(=O)c2cnc(Nc3ccc(OCCN4CCCCC4)c(Cl)c3)nc2n2c3ccccc3nc12 [No. 59, 2-((3-chloro-4-((2-(1-piperidinyl)ethyl)oxy)phenyl)-amino)-6-(2,6-dimethylphenyl)pyrimido[5′,4′:5,6]-pyrimido[1,2-a]benzimidazol-5(6H)-one]"
< 1 µM,–,"Cc1cccc(C)c1-n1c(=O)c2cnc(Nc3ccc(OCCN(C)C)cc3)nc2n2c3ccccc3nc12 [No. 8, 2-((4-((2-(dimethylamino)ethyl)oxy)phenyl)amino)-6-(2,6-dimethylphenyl)pyrimido[5′,4′:5,6]pyrimido[1,2-a]benzimidazol-5(6H)-one]"
< 1 µM,–,"C[C@@H](c1ccccc1)n1c(=O)c2cnc(Nc3ccc(N4CCN(C)CC4)cc3)nc2n2c3ccccc3nc12 [No. 60, 2-((4-(4-methyl-1-piperazinyl)phenyl)amino)-6-((1S)-1-phenylethyl)pyrimido[5′,4′:5,6]pyrimido[1,2-a]-benzimidazol-5(6H)-one]"
< 1 µM,–,"Cc1cccc(C)c1-n1c(=O)c2cnc(Nc3ccc(OCCCN4CCN(C(C)C)CC4)c(F)c3)nc2n2c3ccccc3nc12 [No. 72, 6-(2,6-dimethylphenyl)-2-((3-fluoro-4-((3-(4-(1-methylethyl)-1-piperazinyl)propyl)oxy)phenyl)-amino)pyrimido[5′,4′:5,6]pyrimido[1,2-a]-benzimidazol-5(6H)-one]"
< 1 µM,–,"Cc1cccc(C)c1-n1c(=O)c2cnc(Nc3ccc(OC[C@H]4CCCN4)cc3)nc2n2c3ccccc3nc12 [No. 23, 6-(2,6-dimethylphenyl)-2-((4-(((2R)-2-pyrrolidinylmethyl)oxy)phenyl)amino)-pyrimido[5′,4′:5,6]pyrimido[1,2-a]benzimidazol-5(6H)-one]"
< 1 µM,–,"COc1cc(Nc2ncc3c(=O)n(-c4c(C)cccc4C)c4nc5ccccc5n4c3n2)ccc1N1CCNCC1 [No. 37, 6-(2,6-dimethylphenyl)-2-((3-(methyloxy)-4-(1-piperazinyl)phenyl)amino)pyrimido[5′,4′:5,6]-pyrimido[1,2-a]benzimidazol-5(6H)-one]"
< 1 µM,–,"Cc1cccc(C)c1-n1c(=O)c2cnc(Nc3ccc(N4CCN(C)CC4)c(F)c3)nc2n2c3ccccc3nc12 [No. 26, 6-(2,6-dimethylphenyl)-2-((3-fluoro-4-(4-methyl-1-piperazinyl)phenyl)amino)pyrimido[5′,4′:5,6]-pyrimido[1,2-a]benzimidazol-5(6H)-one]"
< 1 µM,–,"Cc1cccc(C)c1N1C(=O)c2cnc(Nc3ccc(N4CCN(C)CC4)cc3)nc2N2CCN=C21 [No. 58, 6-(2,6-dimethylphenyl)-2-((4-(4-methyl-1-piperazinyl)phenyl)amino)-8,9-dihydroimidazo[1,2-a]pyrimido[5,4-e]pyrimidin-5(6H)-one]"
–,< 1 µM,"Cc1cccc(-n2c(=O)c3cnc(Nc4ccc(N5CCN(C)CC5)cc4)nc3n3c4ccccc4nc23)c1 [No. 80, 6-(3-methylphenyl)-2-((4-(4-methyl-1-piperazinyl)-phenyl)amino)pyrimido[5′,4′:5,6]pyrimido[1,2-a]-benzimidazol-5(6H)-one]"
